Results as given in PMC8286823, “Identifying SARS-CoV-2 antiviral compounds by screening for small molecule inhibitors of nsp15 endoribonuclease” (Biochemical Journal, 2021).
pIC50: −log10 of the molar value. Where “and” joins values, the source holds several entries; their conditions need not be identical. Identical values can stand only once. Counter-ions that a name gives are not always drawn.

What was measured:
[1] = biological target: T1, SARS-CoV-2 nsp15 endoribonuclease (Severe acute respiratory syndrome coronavirus 2, UniProt P0DTD1); assay type: biochemical; conditions: 100 µM compound, 500 nM nsp15, 1 µM 16 nt U substrate; for mean cleavage (%): 20 min at 30°C, n=3
[2] = biological target: T1, SARS-CoV-2 nsp15 endoribonuclease
[3] = test system: VERO E6 cells; experiment: Cell survival (cell area, DRAQ5) in SARS-CoV-2 infectivity assay; assay type: cell-based, Chlorocebus sabaeus; conditions: infected VERO E6 cells, 22 h
Procedure: (§1) We infected VERO E6 cells with SARS-CoV-2 in the presence of a range of concentrations of NSC95397 and quantified viral infected area (Figure 5A,B). NSC95397 sacrificed VERO E6 cells at concentrations above 10 μM, consistent with previous reports that NSC95397 is an inhibitor of the Cdc25 protein phosphatase and multiple protein kinases [[39–42]]. This made it more difficult to assess viral growth. With the aim of finding a concentration of NSC95397 that inhibited viral growth without killing the cells, we performed a second titration at lower NSC95397 concentrations (Figure 5C,D).
(§2) Figure 5. […] (A) SARS-CoV-2 infectivity assays in the presence of NSC95397. DNA in cells was stained with DRAQ5, and virus was immunostained with anti-N antibody. (B) Quantification of normalised viral area (black) and cell area (gray) ±SD. […] (D) Quantification of C as in B. (E) SARS-CoV-2 infectivity assays as in C in the presence of 0.5 µM remdesivir. (F) Quantification of E as in B, note that black control line is quantification of control experiment in C.
(§3) Infectivity assays were performed as in the accompanying manuscript (see Zeng et al.). […] The whole well area was delineated, and area of Alexa488/N protein and DRAQ5/DNA signals were determined for each well. […]

[4] = biological target: T2, Pierce Universal Nuclease (benzonase) (Serratia marcescens, UniProt P13717); experiment: Gel-based nuclease specificity assay with 16 nt U substrate, benzonase; assay type: biochemical; conditions: 0, 11, 33 or 100 µM; 25 mU/µl Pierce Universal Nuclease, 1 µM 16 nt U substrate
T2 construct: purchased Pierce
T2 sequence (P13717 22-266): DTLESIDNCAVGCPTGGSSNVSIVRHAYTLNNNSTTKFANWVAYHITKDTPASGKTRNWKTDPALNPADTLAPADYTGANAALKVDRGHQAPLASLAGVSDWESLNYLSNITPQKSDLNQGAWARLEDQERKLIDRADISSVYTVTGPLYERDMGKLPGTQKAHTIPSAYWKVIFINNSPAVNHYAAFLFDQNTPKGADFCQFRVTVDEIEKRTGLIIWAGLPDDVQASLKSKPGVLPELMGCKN

[5] = test system: SARS-CoV-2; experiment: SARS-CoV-2 infectivity assay in VERO E6 cells (viral area, anti-N staining); assay type: cell-based
Procedure: as §1, §2, §3

[6] = biological target: T1, SARS-CoV-2 nsp15 endoribonuclease; experiment: biochemical; assay type: biochemical
[7] = biological target: RNase A (Bos taurus, UniProt P61823); experiment: Gel-based nuclease specificity assay with 16 nt U substrate, RNase A; assay type: biochemical; conditions: 0, 11, 33 or 100 µM; 1 pg/µl RNase A, 1 µM 16 nt U substrate
Chain of RNase A (P61823 27-150): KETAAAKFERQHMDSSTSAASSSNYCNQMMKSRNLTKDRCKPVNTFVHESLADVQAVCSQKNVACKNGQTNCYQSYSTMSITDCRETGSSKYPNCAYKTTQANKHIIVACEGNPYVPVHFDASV

Structure (SMILES) | mean cleavage (%) [1] | activity [2] | other results
CCCNS(=O)(=O)Nc1ncnc(OCCOc2ncc(Br)cn2)c1-c1ccc(Br)cc1 [Macitentan] | 64% | – | –
O=c1cc(-c2ccccc2)oc2cc(O)c(O)c(O)c12 [Baicalein] | 64% | 80% | –
Oc1cc2c(cc1O)C(c1ccccc1)CNCC2 (stereo not drawn) [SKF 38393 hydrobromide] | 62% | 65% | –
CC#C[C@]1(O)CC[C@H]2[C@@H]3CCC4=CC(=O)CCC4=C3[C@@H](c3ccc(N(C)C)cc3)C[C@@]21C [Mifepristone] | 63% | 85% | –
C[C@H]1CC[C@@]2(OC1)O[C@H]1C[C@H]3[C@@H]4CC[C@@H]5C[C@@H](O)CC[C@]5(C)[C@H]4CC[C@]3(C)[C@H]1[C@@H]2C [Sarsasapogenin] | – | 100% and 96% | –
O=C1C(SCCO)=C(SCCO)C(=O)c2ccccc21 [NSC95397] | 9% | – | concentration that sacrificed VERO E6 cells [3]: above 10 μM; effect on nuclease cleavage by benzonase [4]: did not affect nuclease cleavage; SARS-CoV-2 viral growth in VERO E6 cells ([5]; MOI 0.5 PFU/cell, 22 h post-infection, titration at lower concentrations): viral growth was not inhibited; additive effect with remdesivir on SARS-CoV-2 infectivity ([5]; VERO E6 cells, NSC95397 titration in the presence of 0.5 µM remdesivir): did not observe any additive effect; Hill slope [6]: -2.5; pIC50 [6]: 4.37; inhibition of nsp15 endoribonuclease activity in plate reader [6]: able to inhibit nsp15 endoribonuclease activity; effect on nsp15 endoribonuclease activity in gel-based assay [1]: inhibited nsp15 endoribonuclease; effect on nuclease cleavage by RNase A [7]: did not affect nuclease cleavage
Cl.Cl.NCCC(=O)NCCc1cnc[nH]1 [Carcinine dihydrochloride] | 76% | – | –
CC(COc1ccccc1)N(CCCl)Cc1ccccc1 (stereo not drawn) [Phenoxybenzamine] | 58% | 37% | –
O=C1c2cc([N+](=O)[O-])ccc2-n2c1nc1ccccc1c2=O [GNF-PF-3777] | 60% | – | effect on nsp15 endoribonuclease activity in gel-based assay [1]: had no effect even at 100 µM
O=Nc1ccc2oc(=O)ccc2c1 [NOBP] | 63% | – | –
CN1C[C@H](C(=O)N[C@]2(C)O[C@@]3(O)[C@@H]4CCCN4C(=O)[C@H](Cc4ccccc4)N3C2=O)C[C@@H]2c3cccc4[nH]cc(c34)C[C@H]21 [Dihydroergotamine mesylate] | – | 95% and 98% | –
C=C(C)[C@@H]1CC[C@]2(C(=O)O)CC[C@]3(C)[C@H](CC[C@@H]4[C@@]5(C)CC[C@H](O)C(C)(C)[C@@H]5CC[C@]43C)[C@@H]12 [Betulinic acid] | 51% | – | –
Cc1c(COc2cc(OCc3cccc(C#N)c3)c(CN3C[C@H](O)C[C@@H]3C(=O)O)cc2Cl)cccc1-c1ccc2c(c1)OCCO2 [BMS-1166] | 58% | – | inhibition of nsp15 endoribonuclease activity in plate reader [6]: able to inhibit nsp15 endoribonuclease activity; effect on nsp15 endoribonuclease activity in gel-based assay [1]: did not inhibit the enzyme even at 100 µM
Cn1cnc2nc(NCCO)nc(NCc3ccccc3)c21 [Iso-Olomoucine] | 60% | – | –
CC(C)(C)c1nc2c3cc[nH]c(=O)c3c3cc(F)ccc3c2[nH]1 [JAK Inhibitor I] | 65% | – | –
CO[C@@H]1[C@@H](OC(N)=O)[C@@H](O)[C@H](Oc2ccc3c(O)c(NC(=O)c4ccc(O)c(CC=C(C)C)c4)c(=O)oc3c2C)OC1(C)C [Novobiocin] | – | 98% and 95% | –
CN1C[C@H](C(=O)N[C@]2(C)O[C@@]3(O)[C@@H]4CCCN4C(=O)[C@H](Cc4ccccc4)N3C2=O)C=C2c3cccc4[nH]cc(c34)C[C@H]21 [Ergotamine] | – | 99% and 100% | –
Cc1ncc([N+](=O)[O-])n1CC(O)CCl (stereo not drawn) [Ornidazole] | 62% | 66% | –
COc1cc(/C=C/C(=O)CC(=O)/C=C/c2ccc(O)c(OC)c2)ccc1O [Curcumin] | – | 95% and 100% | –
